# System: chimeric human/mouse MHC class II molecules
# Type: binding
substance,measurement,value
influenza nucleoprotein (383-395): DR-restricted synthetic peptide (SRYWAIRTRSGGN),binding to chimeric MHC class II molecules,Specific binding was also observed
